Test results as given in ChEMBL document CHEMBL1128042, “The effect of fluorine substitution on the haemotoxicity of Primaquine” (1995).

Species: Mus musculus
Experiment: Antimalarial activity was evaluated against Plasmodium berghei in female CD1 mice (Mus musculus) (20-25g)
Assay type: functional

Row | Compound | ED50
1 | COc1cc(NC(C)CCCN)c2ncccc2c1 (configuration not stated) [PRIMAQUINE] | 2.2 µmol/kg
2 | COc1cc(NC(C)CCCN)c2ncccc2c1F (configuration not stated) | 7.78 µmol/kg
